From patent US8772330B2, “Inhibitor(s) of transporters or uptake of monoaminergic neurotransmitters” (State of Oregon acting by and through the State Board of …, priority 2009, dated 2014)
Structures can show the parent of a compound that is named as a salt.

How the values were obtained:
[1] = biological target: T1, dopamine (DA) transporter (Homo sapiens, UniProt Q01959); conditions: for Slope, Dopamine (DA) transporter: Table 1, binding curve slope
[2] = biological target: T2, serotonin (5-HT) transporter (Homo sapiens, UniProt P31645); conditions: for Slope, Serotonin (5-HT) transporter: Table 1, binding curve slope
T2 sequence (P31645 whole entry): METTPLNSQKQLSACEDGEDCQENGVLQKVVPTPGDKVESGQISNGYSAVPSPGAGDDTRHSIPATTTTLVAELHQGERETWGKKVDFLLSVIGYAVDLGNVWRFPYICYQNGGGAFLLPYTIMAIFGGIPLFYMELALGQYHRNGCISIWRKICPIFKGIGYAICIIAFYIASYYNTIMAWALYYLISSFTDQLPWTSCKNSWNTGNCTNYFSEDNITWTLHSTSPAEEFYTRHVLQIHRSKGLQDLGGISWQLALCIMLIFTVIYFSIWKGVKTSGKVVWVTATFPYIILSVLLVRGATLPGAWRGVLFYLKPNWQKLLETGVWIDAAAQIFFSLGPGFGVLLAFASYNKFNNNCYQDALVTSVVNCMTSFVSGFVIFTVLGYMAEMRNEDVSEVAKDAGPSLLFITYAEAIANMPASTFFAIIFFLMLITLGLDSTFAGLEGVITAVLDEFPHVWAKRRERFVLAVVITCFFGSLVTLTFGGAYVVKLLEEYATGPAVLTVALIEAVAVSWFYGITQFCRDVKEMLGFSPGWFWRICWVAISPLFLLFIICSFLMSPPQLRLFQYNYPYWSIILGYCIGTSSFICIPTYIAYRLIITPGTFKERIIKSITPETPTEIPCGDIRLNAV

[3] = biological target: T3, norepinephrine (NE) transporter (Homo sapiens, UniProt P23975)
Target sequence in this assay (P23975 whole entry): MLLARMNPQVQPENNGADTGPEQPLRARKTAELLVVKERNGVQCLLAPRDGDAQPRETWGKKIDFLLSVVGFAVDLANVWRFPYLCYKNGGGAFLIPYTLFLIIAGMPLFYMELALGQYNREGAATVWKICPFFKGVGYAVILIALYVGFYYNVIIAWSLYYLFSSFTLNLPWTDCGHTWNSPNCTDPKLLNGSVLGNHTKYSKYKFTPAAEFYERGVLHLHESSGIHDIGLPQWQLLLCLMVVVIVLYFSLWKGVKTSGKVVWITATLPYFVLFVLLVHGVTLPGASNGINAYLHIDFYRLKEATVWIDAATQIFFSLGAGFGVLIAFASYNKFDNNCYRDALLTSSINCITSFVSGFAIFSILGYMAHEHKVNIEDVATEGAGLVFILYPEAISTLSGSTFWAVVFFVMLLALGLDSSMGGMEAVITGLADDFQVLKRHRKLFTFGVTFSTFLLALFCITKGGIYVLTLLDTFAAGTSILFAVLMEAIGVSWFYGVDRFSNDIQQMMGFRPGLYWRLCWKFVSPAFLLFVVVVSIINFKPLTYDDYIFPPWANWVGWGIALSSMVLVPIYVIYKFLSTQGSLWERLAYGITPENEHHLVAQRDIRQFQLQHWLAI

[4] = biological target: T2, serotonin (5-HT) transporter; conditions: Table 2; data derived from literature; read-out: Affinity (Ki), 5-Hydroxy Tryptamine (5-HT) transporter; cited from earlier work
[5] = biological target: T1, dopamine (DA) transporter; conditions: Table 2; data derived from literature; read-out: Affinity (Ki), Dopamine (DA) transporter; cited from earlier work
[6] = biological target: T3, norepinephrine (NE) transporter; conditions: Table 2; data derived from literature; read-out: Affinity (Ki), Norepinephrine (NE) transporter; cited from earlier work
Target sequence in this assay (P23975 whole entry, species assumed): as the sequence (P23975 whole entry) above

T1 sequence (Q01959 whole entry): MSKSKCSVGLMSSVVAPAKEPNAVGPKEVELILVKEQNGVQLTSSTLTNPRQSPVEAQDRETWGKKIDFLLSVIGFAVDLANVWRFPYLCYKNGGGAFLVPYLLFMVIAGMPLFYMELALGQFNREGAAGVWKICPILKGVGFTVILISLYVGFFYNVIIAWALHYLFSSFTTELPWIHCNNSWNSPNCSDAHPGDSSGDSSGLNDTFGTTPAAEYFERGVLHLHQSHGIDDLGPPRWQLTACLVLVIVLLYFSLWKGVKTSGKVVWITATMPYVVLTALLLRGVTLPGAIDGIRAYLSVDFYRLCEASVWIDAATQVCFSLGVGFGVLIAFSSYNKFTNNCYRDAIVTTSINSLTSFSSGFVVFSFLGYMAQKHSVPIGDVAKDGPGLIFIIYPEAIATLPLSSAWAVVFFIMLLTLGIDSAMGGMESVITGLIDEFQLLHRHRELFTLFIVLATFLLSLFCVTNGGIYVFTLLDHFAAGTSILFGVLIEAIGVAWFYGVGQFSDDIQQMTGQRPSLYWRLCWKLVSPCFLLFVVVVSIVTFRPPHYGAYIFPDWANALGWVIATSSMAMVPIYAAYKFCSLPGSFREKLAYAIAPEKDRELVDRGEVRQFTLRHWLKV

SMILES	Slope, Dopamine (DA) transporter [1]	Slope, Serotonin (5-HT) transporter [2]	times more potent than DWJW0002 as inhibitor of dopamine transporter ([1]; with reference to Table 1)	further results
CNC[C@@H]1C[C@]1(Oc1cccc2ccccc12)c1cccs1 (racemic) [DWJW0002, (E)-N-Methyl-[2-(naphthalen-1-yloxy)-2-(thiophen-2-yl)cyclopropyl)methanamine Hydrochloride]	−1.11	−0.92	–	times more potent than DWJW0003 as inhibitor of serotonin transporter ([2]; with reference to Table 1): about 3 times
CNCC1CC1(Oc1cccc2ccccc12)c1cccs1 (racemic) [DWJW0003, (Z)-N-Methyl-[2-(naphthalen-1-yloxy)-2-(thiophen-2-yl)cyclopropyl]methanamine Hydrochloride]	−1	−1.19	about 2 times	Slope, Norepinephrine (NE) transporter ([3]; Table 1, binding curve slope): −0.84; times more potent than DWJW0002 as inhibitor of norepinephrine transporter ([3]; with reference to Table 1): about 9 times
Fc1ccc(C(OCCN2CCN(CCCc3ccccc3)CC2)c2ccc(F)cc2)cc1 [GBR12909, reference compound]	−1.25	–	16 times	times more potent than DWJW0003 as inhibitor of dopamine transporter ([1]; with reference to Table 1): 8 times
CN(C)CCCN1c2ccccc2CCc2ccccc21 [Imipramine, reference compound]	–	−1.06	–	–
C#Cc1ccc([C@@H]2CN3CCC[C@@H]3c3ccccc32)cc1 [JNJ-7925476]	–	–	–	Ki [4]: 0.9 ± 0.1 nM; Ki [5]: 5.2 ± 1 nM; Ki [6]: 16.6 ± 7 nM
